{
  "source": "patent US20210337838A1",
  "about": "“RECOMBINANT EXPRESSION OF FUMONISIN AMINE OXIDASE” (priority 2018, published 2021)",
  "molecules": {"B1": {"name": "AnFAO_15309 (Aspergillus niger CBS 513.88) (protein)", "chain": "MSVSNDPTTKLYDAVIVGAGLSGLQAAHSIQAAGFSVCILEATDRMGGKTLTVKSSEKGYNDLGAAWVNDTNQTEIFKLHQRYGLDGVVQYTCGDDILESGEGVIRKIPYGLPLTGLPKKLLDILRIESSRLDLDDPTSFPGATEVDNLTFRDFCVEKTGSEDVIHITDAISTALLGLNSNELSALYMLYYFKSGSGIDNLLSDERDGAQYLRTRQGTQTIARKMADELTQSDIFLGMPVTSINQTDADAHCVVQTLDGSSFRCRRVIVSIPTTLYRSVSFHPPLPHAKQVLSDHTIMGYYSKVIFIFKEPWWRDAGLTGIVNCAGGPITFTRDTSVPTDDQWSITCFMVGSRGRAWSKLSKDDRYSQVWEQFRRCFEEFVENIPEPVNTLEMEWSKEPYFLGAPCPAMIPGLLTTAGSDLAAPHGKVHFIGTETSTVWRGYMEGAIRAGQRGGAEVVTALQED"}, "B2": {"name": "AnFAO_10927: AnFAO homolog clone, SEQ ID NO: 27 (protein)", "chain": "B1 chain with M46V, T230S, Q255K, N323D, C376F, V388A", "modifications": "Aspergillus niger"}, "B3": {"name": "AnFAO_7097: AnFAO homolog clone, SEQ ID NO: 29 (protein)", "chain": "B1 chain with M46V, R82Q, N323D, F377L, E379G, V388A, A417T", "modifications": "Aspergillus niger"}, "B4": {"name": "AnFAO_6142: AnFAO homolog clone, SEQ ID NO: 28, identical to AnFAO_10929; substitutions M46V, R82Q, V267L vs AnFAO_15309 (protein)", "chain": "B1 chain with M46V, R82Q, V267L", "modifications": "Aspergillus niger", "notes": "substitutions M46V, R82Q, V267L vs AnFAO_15309"}},
  "key": {"[1]": {"target": "T1, AnFAO_15309 (Aspergillus niger, UniProt A2R252)", "assay_type": "biochemical", "conditions": "20 nM enzyme, 50 μM substrate, pH 7.0, 1 hr", "description": "(§1) Absorbance was monitored at 571 nm every 10 mins for 1 hr. A standard curve consisting of 0-10 μM H2O2 was included to determine the absorbance for every μmol of H2O2 generated by the reaction."}, "[2]": {"target": "T1, AnFAO_15309", "assay": "Kinetic analysis of recombinant AnFAO_15309", "assay_type": "biochemical", "description": "as §1\nThe resulting mixture was twice extracted with equal volumes of ethyl acetate, dried, and re-suspended in reaction buffer."}, "[3]": {"system": "fumonisin deamination activity from A. niger culture supernatants", "assay": "Fumonisin chemotype preference of deamination activity, reverse-phase LC-MS", "assay_type": "biochemical, Aspergillus niger", "conditions": "for initial conversion rate of intact to deaminated fumonisin: FB1 and FB2 co-incubated at 37° C. with active sample following high-resolution ion exchange, n=2", "experimental": "After each step, protein fractions were assayed for deamination activity by monitoring their ability to convert intact FB2 into FPy2 via reverse-phase liquid chromatography/mass spectrometry (LC-MS), as shown in FIG. 2. In particular, all MS data were collected with a Q-Exactive™ Quadrupole Orbitrap™ mass spectrometer (Thermo Scientific, MA, USA) coupled to an Agilent 1290 ultra-high-performance liquid chromatography (UHPLC) system. Fumonisins were resolved on a Zorbax™ Eclipse Plus Rapid Resolution High Definition (RRHD) C18 column (2.1×50 mm, 1.8 μm; Agilent Technologies, CA, USA), maintained at 35° C. The mobile phase was comprised of water with 0.1% formic acid (A), and acetonitrile with 0.1% formic acid (B) (Optima grade, Fisher Scientific, NJ, USA). The gradient consisted of 0% B for 0.5 min before increasing to 100% over 3 min, held at 100% for 2.5 min and reduced to 0% over 0.5 min. The fumonisins were detected in negative ionization mode using the following electrospray conditions: capillary voltage, 4.0 kV; capillary temperature, 400° C.; sheath gas, 17.00 units; auxiliary gas, 8.00 units; probe heater temperature, 450° C.; S Lens RF level, 45.00. The data-dependent acquisition method involved a full MS scan at 17,500 resolution over a scan range of 140-760 m/z; automatic gain control (AGC) target and maximum injection time (max IT) was 5×10^6 and 64 ms, respectively. The five highest intensity ions from the full scan (excluding isotopes) were sequentially selected using a 1.2 m/z isolation window and analyzed at a resolution of 17,500; AGC target, 1×10^5; max IT, 64 ms; normalized collision energy (NCE) 30; threshold intensity 9.1×10^4; and dynamic exclusion of 1.5 s. Fumonisins were detected by accurate mass (±5 ppm) and retention time (±0.1 min) and verified by MS/MS.\nAll samples assayed during protein purification were incubated at 37° C. with 1 μM FB2 (Sigma) unless stated otherwise. Reactions were terminated via addition of a 10-fold volume excess of 50% (v:v) methanol in water prior to reverse-phase LC/MS analysis represented in FIG. 2."}, "[4]": {"substrate": "CCCC[C@@H](C)[C@@H](O)[C@@H](O)C[C@@H](C)C[C@H](O)CCCC[C@@H](O)C[C@H](O)[C@H](C)N", "assay": "purified protein, by the assay type", "conditions": "other: recombinant AnFAO_15309; pH 7.0"}, "[5]": {"substrate": "CCCCCCCCCCCCCCC[C@@H](O)[C@@H](N)CO", "assay": "purified protein, by the assay type", "conditions": "other: recombinant AnFAO_15309; pH 7.0"}, "[6]": {"assay": "Amplex red assay of AnFAO homolog clones", "assay_type": "biochemical", "from_the_text": "Seven of the AnFAO homologs were synthesized and cloned into the MBP-TEV vector for recombinant expression in E. coli."}, "[7]": {"assay": "Circular dichroism thermal denaturation", "assay_type": "physicochemical", "conditions": "0.3 mg/ml, 20 mM Tris-HCl (pH 7.4), 50 mM NaCl, 0.75 mM DTT, monitored at 222, 20 to 95° C.", "description": "Activity was measured via reverse-phase LC/MS analysis. […] All proteins were scanned at a concentration of 0.3 mg/ml in buffer containing 20 mM Tris-HCl (pH 7.4), 50 mM NaCl and 0.75 mM DTT. Thermal denaturation was monitored at […] with a temperature scan ranging from 20 to 95° C., increasing by 1° C. per minute with data collection every 30 seconds. Baseline corrected data were converted from millidegrees to mean residue ellipticity, and thermal denaturation curves were produced by nonlinear regression in Graphpad Prism."}},
  "note": "Residue numbers refer to the chain shown, from its start. In names and notes the source's numbering stands. Where two headings read alike, the source gives them in different places.",
  "data": [
    {"molecule": "NCCc1ccc(O)c(O)c1", "note": "[dopamine]", "values": [
      {"measurement": "relative activity, relative to FB3 (100% activity)", "setting": "[1]", "value": 9.7, "unit": "%"}
    ]},
    {"molecule": "NCCCC[C@H](N)C(=O)O", "note": "[lysine]", "values": [
      {"measurement": "relative activity, relative to FB3 (100% activity)", "setting": "[1]", "value": 6.3, "unit": "%"}
    ]},
    {"molecule": "Fumonisin B1 [FB1]", "values": [
      {"measurement": "fold change (efficiency compared to FB2)", "setting": "[2]; kcat/KM relative to FB2 = 1.0", "value": 0.3, "unit": "fold"},
      {"measurement": "initial conversion rate of intact to deaminated fumonisin", "setting": "[3]", "value": "2.1±0.1", "unit": "% hr^−1"}
    ]},
    {"molecule": "NCc1ccccc1", "note": "[benzylamine]", "values": [
      {"measurement": "relative activity, relative to FB3 (100% activity)", "setting": "[1]", "value": 1.4, "unit": "%"}
    ]},
    {"molecule": "NCCc1c[nH]c2ccc(O)cc12", "note": "[serotonin]", "values": [
      {"measurement": "relative activity, relative to FB3 (100% activity)", "setting": "[1]", "value": 3.7, "unit": "%"}
    ]},
    {"molecule": "CCCC[C@@H](C)[C@@H](O)[C@@H](O)C[C@@H](C)C[C@H](O)CCCC[C@@H](O)C[C@H](O)[C@H](C)N", "note": "[hFB1]", "values": [
      {"measurement": "fold change (efficiency compared to FB2)", "setting": "[2]; kcat/KM relative to FB2 = 1.0", "value": 4.6, "unit": "fold"},
      {"measurement": "kcat", "setting": "[2]; recombinant AnFAO_15309", "value": 0.298, "unit": "s⁻¹"}
    ]},
    {"molecule": "CCCCCCCCCCCCCCC[C@@H](O)[C@@H](N)CO", "note": "[sphinganine]", "values": [
      {"measurement": "fold change (efficiency compared to FB2)", "setting": "[2]", "value": 16.6, "unit": "fold"},
      {"measurement": "kcat", "setting": "[2]; recombinant AnFAO_15309", "value": 0.612, "unit": "s⁻¹"}
    ]},
    {"molecule": "NCCCCNCCCN", "note": "[spermidine]", "values": [
      {"measurement": "relative activity, relative to FB3 (100% activity)", "setting": "[1]", "value": 1.4, "unit": "%"}
    ]},
    {"molecule": "N[C@H]1C(O)O[C@H](CO)[C@@H](O)[C@@H]1O", "note": "(stereo partly drawn) [glucosamine]", "values": [
      {"measurement": "relative activity, relative to FB3 (100% activity)", "setting": "[1]", "value": 1.2, "unit": "%"}
    ]},
    {"molecule": "NCCc1ccc(O)cc1", "note": "[tyramine]", "values": [
      {"measurement": "relative activity, relative to FB3 (100% activity)", "setting": "[1]", "value": 5.8, "unit": "%"}
    ]},
    {"molecule": "CCCC[C@@H](C)[C@@H](OC(=O)C[C@@H](CC(=O)O)C(=O)O)[C@H](C[C@@H](C)CCCCCC[C@@H](O)C[C@H](O)[C@H](C)N)OC(=O)C[C@@H](CC(=O)O)C(=O)O", "note": "[FB2, fumonisin B2]", "values": [
      {"measurement": "fold change (efficiency compared to FB2)", "setting": "[2]; kcat/KM relative to FB2 = 1.0", "value": 1.0, "unit": "fold"},
      {"measurement": "Km", "setting": "[2]; recombinant AnFAO_15309", "value": 195, "unit": "µM"},
      {"measurement": "kcat", "setting": "[2]; recombinant AnFAO_15309", "value": 0.228, "unit": "s⁻¹"},
      {"measurement": "efficiency at deaminating FB2 compared to FB1", "setting": "[2]; relative to FB1", "value": 3.2, "unit": "fold"},
      {"measurement": "increase in catalytic efficiency (kcat) FB2 vs. FB1", "setting": "[2]; relative to FB1", "value": "~1.6", "unit": "fold"},
      {"measurement": "stronger affinity (KM) FB2 vs. FB1", "setting": "[2]; relative to FB1", "value": "~2", "unit": "fold"},
      {"measurement": "initial conversion rate of intact to deaminated fumonisin", "setting": "[3]", "value": "24.3±1.5", "unit": "% hr^−1"},
      {"measurement": "chemotype preference for FB2 compared to FB1", "setting": "[3]; co-incubation of FB1 and FB2 at 37° C.", "value": "order of magnitude"}
    ]},
    {"molecule": "CCCN", "note": "[propylamine]", "values": [
      {"measurement": "relative activity, relative to FB3 (100% activity)", "setting": "[1]", "value": 5.6, "unit": "%"}
    ]},
    {"molecule": "NCCCNCCCCNCCCN", "note": "[spermine]", "values": [
      {"measurement": "relative activity, relative to FB3 (100% activity)", "setting": "[1]", "value": 1.9, "unit": "%"}
    ]},
    {"molecule": "CCCC[C@@H](C)[C@@H](OC(=O)CC(CC(=O)O)C(=O)O)[C@H](C[C@@H](C)C[C@H](O)CCCCCC[C@@H](O)[C@H](C)N)OC(=O)CC(CC(=O)O)C(=O)O", "note": "(stereo partly drawn) [FB3]", "values": [
      {"measurement": "relative activity, relative to FB3 (100% activity)", "setting": "[1]", "value": 100, "unit": "%"}
    ]},
    {"molecule": "B1", "values": [
      {"measurement": "Km", "setting": "[4]", "value": 55.2, "unit": "µM"},
      {"measurement": "kcat", "setting": "[4]", "value": 0.298, "unit": "s⁻¹"},
      {"measurement": "kcat/Km", "setting": "[4]", "value": 5400, "unit": "M⁻¹ s⁻¹"},
      {"measurement": "Km", "setting": "[5]", "value": 31.4, "unit": "µM"},
      {"measurement": "kcat", "setting": "[5]", "value": 0.612, "unit": "s⁻¹"},
      {"measurement": "kcat/Km", "setting": "[5]", "value": 19000, "unit": "M⁻¹ s⁻¹"}
    ]},
    {"molecule": "B2", "values": [
      {"measurement": "activity compared to 15309", "setting": "[6]; 80 nM enzyme, 25 μM FB1, pH 7", "value": 31, "unit": "%"},
      {"measurement": "melting temperature", "setting": "[7]", "value": 76, "unit": "°C"}
    ]},
    {"molecule": "B3", "values": [
      {"measurement": "activity compared to 15309", "setting": "[6]; 80 nM enzyme, 25 μM FB1, pH 7", "value": 27, "unit": "%"}
    ]},
    {"molecule": "B4", "values": [
      {"measurement": "activity compared to AnFAO_15309 (fold)", "setting": "[6]; 80 nM enzyme, 25 μM FB1, pH 7", "value": 2.5, "unit": "×"},
      {"measurement": "relative activity", "setting": "[6]; relative to AnFAO_15309 = 1", "value": "(relative activity = 2.5):"},
      {"measurement": "melting temperature", "setting": "[7]", "value": 76, "unit": "°C"}
    ]}
  ]
}
